Earlier results in US20110171184A1, “Method for Introducing a Pna Molecule Conjugated to a Positively Charged Peptide into the Cytosol and/or the Nucleus by Photochemical Internalisation (Pci)” (PCI Biotech AS, priority 2004, published 2011).
Ends that are not written are not given here.

Tested on: cells
Details: 10 μM, after 24 hours, no PCI

For “scrambled NLS sequence (SEQ ID NO:4 KKVKPKR) conjugated to PNA: PNA conjugated to scrambled NLS sequence KKVKPKR (Cutrona et al.) (also: conjugated to PNA)”, the “presence of PNA in the nucleus” value is given as “only minimal amounts of PNA in the nucleus”.
